Experimental data reported in PMC10525927, “First Generation of Antioxidant Precursors for Bioisosteric Se-NSAIDs: Design, Synthesis, and In Vitro and In Vivo Anticancer Evaluation” (Antioxidants, 2023).
Where two headings read alike, the source gives them in different places.

Columns and labels:
[1] = DPPH radical scavenging assay
Description: Briefly, the compounds were dissolved at a concentration of 1 mg/mL in absolute methanol, and a dilution was prepared. […] Then, 100 µL of the DPPH solution was added to 100 µL of the compounds’ solution to a final concentration of 0.03 mg/mL or 0.06 mg/mL, and the decolorization of the purple radical to the yellowish reduced form was followed by recording the absorbance at 517 nm. Ascorbic acid (Asc) and Trolox were used as positive controls. Both of them, Asc and Trolox, were purchased from Sigma-Aldrich. Determinations were recorded at eight different time intervals from 0 to 120 min on a BioTeck PowerWave XS spectrophotometer, and the data were collected using KCJunior version 1.41. software. All the measurements were carried out in triplicate. Results are expressed as the percentage of the radical scavenged, calculated using the following formula: % DPPH radical scavenging = [(Acontrol − Asample)/Acontrol] × 100, wherein Acontrol refers to the absorbance of the negative control and Asample refers to the absorbance of the tested compounds.

[2] = system: DU-145 prostate cancer cells; assay: MTT cell viability assay, DU-145; format: cell-based; settings: mean ± SD
Description: (§1) The cell lines were purchased from the American Type Culture Collection (ATCC). The cancer cell lines DU-145, PC-3, T-47D, MDA-MB-231, H1299, and A549, and the non-tumorigenic cells (184B5 and BEAS-2B), were maintained in RPMI 1640 medium (Gibco, Alcobendas, Madrid, Spain) supplemented with 10% fetal bovine serum (FBS; Gibco) and 1% antibiotics (10.00 units/mL penicillin and 10.00 mg/mL streptomycin; Gibco). Colon cancer cells HT-29 and HCT-116 were cultured in McCoy’s 5A medium (Gibco) supplemented with 10% fetal bovine serum (FBS; Gibco) and 1% antibiotics (10.00 units/mL penicillin and 10.00 mg/mL streptomycin; Gibco). Cells were maintained in tissue culture flasks at 37 °C and 5% CO2. The culture medium was replaced every three days.
(§2) The antiproliferative activity and selectivity in vitro of the Se-NSAID derivatives were determined by the (3-(4,5-dimethylthiazol-2-yl)-2,5-diphenyltetrazolium bromide) (MTT) assay. Compounds were dissolved in DMSO at a concentration of 0.01 M and serial dilutions were prepared. The Se-NSAID derivatives were tested at seven concentrations ranging between 1 and 100 µM in the colon (HT-29 and HCT-116), prostate (DU-145 and PC-3), breast (MDA-MB-231 and T-47D), and lung (H1299 and A549) cancer cell lines. The non-tumorigenic breast (184B5) and lung (BEAS-2B) cell lines were also tested to assess the selectivity of the compounds following the same procedure. A total of 1 × 10^4 cells were seeded per well in 96-well plates and incubated at 5% CO2 and 37 °C for 24 h. Then, cells were treated with either DMSO or increasing concentrations of the corresponding Se-NSAID derivatives for 48 h. A volume of 20 µL of MTT (5 mg/mL) was added to each well 2.5 h before the termination point. At the end of the experiment, the medium was removed, and the resultant formazan crystals formed by mitochondrial reduction of MTT were dissolved in 50 µL of DMSO. Absorbance was measured at 550 nm. IC50, GI50, TGI, and LC50 values were calculated using OriginPro version 8.5.1. software by nonlinear curve fitting. Selectivity indexes (SI) were calculated as the ratio of the IC50 values determined for the nonmalignant and the tumoral cells in the breast (IC50 (184B5)/IC50 (MDA-MB-231) and IC50 (184B5)/IC50 (T-47D)) and lung (IC50 (BEAS-2B)/IC50 (H1299) and IC50 (BEAS-2B)/IC50 (A549)) cell lines. Data were obtained from at least three independent experiments performed in triplicates.

[3] = system: PC-3 prostate cancer cells; assay: MTT cell viability assay, PC-3; format: cell-based; settings: 48 h, mean ± SD
Description: as §1, §2

[4] = system: MDA-MB-231 breast cancer cells; assay: MTT cell viability assay, MDA-MB-231; format: cell-based; settings: mean ± SD
Description: as §1, §2

A549 lung cancer cells = assay: MTT cell viability assay, A549; format: cell-based; settings: Homo sapiens, A549, 48 h, mean ± SD
Description: as §1, §2

[5] = system: panel of eight cancer cell lines; assay: MTT cell viability assay, statements on the whole panel; format: cell-based; settings: 48 h
Description: as §1, §2

HCT-116 cells [6] = assay: Annexin V & Dead Cell apoptosis assay; format: cell-based; settings: HCT-116, 24 h
Description: (§3) The capacity of the Se-NSAID derivatives to induce apoptosis was analyzed using both a Caspase 3/7 assay kit and Annexin V & Dead Cell assay kit (EMD Millipore, Darmstadt, Germany). HCT-116 cells were seeded in 6-well plates at a density of 5 × 10^5 cells per well. Cells were treated either with DMSO (control) or with different concentrations of compound 5 and incubated for 24 h. At the end of the treatment, cells were collected and treated with the respective dyes according to the manufacturer’s protocol. For the Caspase 3/7 assay, cells were stained with 5 µL of Muse™ Caspase 3/7 working solution and incubated at 37 °C for 30 min. After incubation, […] of Muse™ Caspase 7-AAD working solution was added and the samples were incubated for another 5 min in the dark at room temperature prior to analysis. For Annexin V assay, cells were stained with 100 µL pf Muse™ Annexin V & Dead Cell Reagent and incubated for 20 min at room temperature in the dark. Samples for both assays were analyzed on a Muse™ Cell Analyzer (Merck Millipore, Darmstadt, Germany) using Muse™ version 1.4. software.

HCT-116 cells [7] = assay: Caspase 3/7 apoptosis assay; format: cell-based; settings: HCT-116, 24 h
Description: as §3

[8] = in vitro TGI concentration, 48 h, Table S1

## CC(C)Cc1ccc(C(C)C(=O)[Se][Se]C(=O)C(C)c2ccc(CC(C)C)cc2)cc1 (stereo not drawn) [Compound 5, 2-(4-Isobutylphenyl)propanoic diselenoperoxyanhydride]
[1]; highest concentration tested (0.06 mg/mL), by the end of the experiment (120 min)
  DPPH radical scavenging activity: comparable to those of the positive controls
[1]; lowest concentration tested (0.03 mg/mL)
  DPPH radical scavenging activity: 20%
[2]; 48 h, Table S1
  LD50 DU-145: 9.0 ± 0.4 µM
[2]; Homo sapiens, DU-145, 48 h
  IC50: 7 ± 1.3 µM
[2]; Homo sapiens, DU-145, 48 h, Table S1
  GI50: 6 ± 1.3 µM
[2]; [8]
  TGI DU-145: 7.3 ± 0.9 µM
[3]
  IC50: 7.4 ± 0.5 µM
[3]; Table S1
  GI50: 4.7 ± 0.2 µM
  LD50 PC-3: 8.9 ± 1.9 µM
[3]; in vitro TGI concentration, Table S1
  TGI PC-3: 6.1 ± 0.5 µM
[4]; Homo sapiens, MDA-MB-231, 48 h
  IC50: 8.3 ± 2.5 µM
[4]; Homo sapiens, MDA-MB-231, 48 h, Table S1
  GI50: 4.8 ± 1.1 µM
[4]; [8]
  TGI MDA-MB-231: 7.9 ± 3.8 µM
A549 lung cancer cells
  IC50: 4.5 ± 0.6 µM
A549 lung cancer cells; Table S1
  GI50: 2.3 ± 0.2 µM
[5]; eight cancer cell lines, read-out: GI50 across all the cancer cell lines tested
  GI50: < 10 µM
[5]; eight colon, prostate, breast and lung cancer cell lines, read-out: IC50 in all the cancer cell lines tested
  IC50: < 10 µM
[5]; read-out: GI50 in at least six out of the eight cell lines
  GI50: < 5 µM
HCT-116 cells [6]; 15 μM
  Early Apop. cells: ~ 23%
  Late Apop./Dead cells: ~ 13%
  Live cells: ~ 63%
HCT-116 cells [6]; 25 μM
  Dead cells: ~ 10%
  Late Apop./Dead cells: ~ 20%
  Live cells: ~ 60%
  cells detected to be apoptotic: more than 30%
HCT-116 cells [7]; Caspase 3/7 assay, 25 μM
  Dead cells: ~ 11%
HCT-116 cells [7]; 2.5 to 25 µM, result in words
  caspase 3/7 activity: no clear enhancement
